The source of these data is publication doi:10.1101/2025.11.04.686469, “Discovery of Host-Directed Small Molecules with Broad Anti-Leishmanial Efficacy” (bioRxiv, 2025).

In brackets after ≈: the same amount, converted by molar mass. Where two headings read alike, the source gives them in different places.

Series [1] can be described thus: Effect of compounds on host cell viability (MTT). The series is classed as cell-based. The conditions noted are these: human. A digest of the protocol:
(§1)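 THP-1 cells were differentiated with 150 nM PMA for 72 h, then exposed to compounds at 1–50 μM for 24 h; selected compounds were also run at 1–300 μM for 72 h. MTT at 0.5 mg/mL was added for 2 h at 37 °C, and formazan absorbance was read at 560 nm minus 670 nm.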

The test system of series [2] is intracellular L. mexicana amastigotes. Kind of series: microbe, parasite or virus in culture. The series is classed as cell-based, Leishmania mexicana. The conditions noted are these: Leishmania mexicana, Macrophage, bone marrow derived macrophages, Giemsa staining. How it is done:
(§2) Bone marrow derived macrophages (BMDMs) were isolated from BALB/c mice and cultured as previously described. Briefly, bone marrow was harvested from long bones of mice and the isolated cells were seeded at a concentration of 2 x 10^6 cells/mL in petri dishes with RPMI media supplemented with 10% FBS, 1% Penn-Strep and 10% L929 conditioned media (LCM). Completely differentiated BMDMs are obtained after 7 days of culture with media change every 2 days. Harvested cells were seeded onto 10 mm glass cover slips at 5 x 10^5 cells/ well of a 24 well plate in DMEM media (without LCM) and allowed to adhere overnight. BMDM cells are then infected overnight with LV82 L. donovani or L. mexicana (NR-51210) at a multiplicity of infection of 10. After infection, cells were washed three times with fresh media to remove extracellular promastigotes and treated with compounds for a 72-hour incubation. BMDM cells were then washed with phosphate buffered saline, fixed with ice-cold methanol, and stained with Giemsa (5% v/v in water). The cover slips with stained cells are mounted onto glass slides and imaged on EVOS XL (100X, Thermo Fisher Scientific). Leishmania amastigotes per 100 macrophages were determined in a blinded manner.

Series [3] relates to intracellular L. donovani amastigotes. Kind of series: Image-based (Giemsa staining) evaluation of intracellular anti-leishmanial activity in bone marrow derived macrophages. The series is classed as cell-based, Leishmania donovani. The method, then: as §2, with “Briefly, bone marrow was harvested from long bones of mice and the isolated cells were seeded at a concentration of 2 x 10^6 cells/mL in petri dishes with RPMI media supplemented with 10% FBS, 1% Penn-Strep and 10% L929 conditioned media (LCM).” left out, “BMDM cells are then infected overnight with LV82 L. donovani or L. mexicana (NR-51210) at a multiplicity of infection of 10.” left out

The test system of series [4] is extracellular L. donovani promastigotes. Kind of series: Effect of compounds on promastigote viability (resazurin assay). The series is classed as cell-based, Leishmania donovani. Conditions: for MIC50: 72-hour incubation. How it is done:
(§3) The effect of compounds on extracellular promastigotes was evaluated using a resazurin-based assay as described previously. In short, late log phase Leishmania promastigotes were seeded in a 96 well plate at 1 x 10^5 parasites per well and treated with drugs (0.5 – 200 μM) for 72 hours at 25°C. Ten microliters of resazurin (0.02% w/v) were added to the treated parasites to achieve a final concentration of 0.002% w/v and incubated for 24 hours. Viability of the promastigotes was assessed by fluorescence (excitation 544 nm, emission 590 nm, SpectraMax M2, Molecular Devices).

Series [5] relates to extracellular L. mexicana promastigotes. The description is as above. It counts as cell-based, Leishmania mexicana. The conditions noted are these: Leishmania mexicana, 72-hour incubation. The method, then:
as §3

The next series has as its system THP-1 macrophages. Kind of series: Effect of compounds on host cell viability (MTT). The series is classed as cell-based. A digest of the protocol:
as §1

The test system of series [6] is intracellular L. donovani amastigotes. As to the kind of experiment: Luminescent-based evaluation of intracellular anti-leishmanial activity in THP-1 macrophages. It counts as cell-based, Leishmania donovani. The conditions noted are these: for Selectivity 24h LC50 / Lum IC50: host-directed effect vs cytotoxicity. The procedure, abridged: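 PMA-differentiated THP-1 macrophages (150 nM, 72 h) were infected 18 h with firefly luciferase-expressing L. donovani LV82 promastigotes, then washed. Infected cells were treated with compounds at 0.1-10 μM for 72 h. Surviving intracellular amastigotes were quantified by firefly luciferase luminescence after cell lysis and 10 min substrate incubation at room temperature.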

Where [7] appears, read: Leishmania donovani, Macrophage, 72 h, Giemsa staining, 72-hour incubation, read-out: Intracellular L. donovani amastigotes IC50.
The mark [8] stands for this setting: Leishmania donovani, Macrophage, Giemsa staining (Table 3), read-out: L. donovani Intracellular amastigotes IC50.
[9] abbreviates: Leishmania donovani, resazurin assay (Table 3), read-out: L. donovani Extracellular promastigotes MIC50.
The mark [10] stands for this setting: Leishmania donovani, resazurin assay, read-out: Extracellular L. donovani promastigotes MIC50.
Setting [11] is: THP-1 macrophages, 72-hour incubation, MTT assay, read-out: 72 hr viability of THP-1 macrophages LC50.
Where [12] appears, read: read-out: 24 hr viability of THP-1 macrophages 24h LC50, THP-1 macrophages, 24-hour incubation, MTT assay.
Setting [13] is: Giemsa staining, 72-hour incubation, read-out: Intracellular L. donovani amastigotes IC50.
Where [14] appears, read: THP1 macrophages, luminescence assay, 72 hours of treatment, read-out: Intracellular L. donovani amastigotes Lum IC50.
[15] abbreviates: resazurin assay, read-out: Extracellular L. donovani promastigotes MIC50.
The mark [16] stands for this setting: Leishmania donovani, THP-1, THP1 macrophages, luminescence assay, 72 hours of treatment, read-out: Intracellular L. donovani amastigotes Lum IC50.
Setting [17] is: read-out: 24h LC50, THP1 macrophages, 24-hour incubation, MTT assay (Supplemental Table 2).
The mark [18] stands for this setting: intracellular Leishmania donovani in THP1 macrophages, luminescence assay (Supplemental Table 2), read-out: Lum IC50.

In turn, `NCC(=O)Nc1ccc(-n2nc(C(F)(F)F)cc2-c2ccc3c(ccc4ccccc43)c2)cc1` [AR-12, reference compound] showed a CC50 at 24 h in series [1] of 13.3 µM. Also, in series [1], the CC50 at 72 h was determined as 8.6 µM. In addition, the results for the IC50 in series [2], in series [3] (setting [7]) and in series [3] (setting [8]) were 1.5 µM, 2.2 µM and 2.2 µM, respectively. For the same compound, the values for the MIC50 in series [4] (setting [9]), in series [4] (setting [10]) and in series [5] were 2.2 µM (≈ 1.01 µg/mL), 2.2 µM (≈ 1.01 µg/mL) and 15.1 µM (≈ 6.95 µg/mL), respectively.
As for `Nc1ccc(CNC2CCN(c3ccc(-n4nc(C(F)(F)F)cc4-c4ccc(-c5ccc(C(F)(F)F)cc5)cc4)cc3)C2)cc1` (stereo not drawn) [Compound 23], the CC50 with THP-1 macrophages (setting [11]) worked out at 6.9 µM; in the series with THP-1 macrophages (setting [12]), 5.8 µM. The IC50 (usually the midpoint of a concentration-inhibition curve) in series [3] (setting [13]) came out at 0.9 µM; in series [6] (setting [14]) it was 0.4 µM. Further, the MIC50 – broadly, an inhibitory concentration at the 50% level, which refers to growth in some studies and to a panel of isolates in others – in series [4] (setting [15]) turned out to be 4.0 µM (≈ 2.49 µg/mL).
Turning to `FC(F)(F)c1ccc(-c2ccc(-c3cc(C(F)(F)F)nn3-c3ccc(NC4CCNC4)cc3)cc2)cc1` (stereo not drawn) [Compound 25], the CC50 in the series with THP-1 macrophages (setting [11]) amounted to 6.3 µM; in the series with THP-1 macrophages (setting [12]) it was 28.9 µM. Further, the IC50 was found to be 2.5 µM in series [3] (setting [13]) and 0.7 µM in series [6] (setting [14]). The MIC50 in series [4] (setting [15]) worked out at 2.1 µM (≈ 1.08 µg/mL).
The matching figures for `CC(C)(C)C#Cc1ccc(-c2cc(C(F)(F)F)nn2-c2ccc(N3CCNCC3)cc2)cc1.Cl` [Compound 44]: 14.5 µM, 7.4 µM, 1 µM, 0.9 µM and 1.9 µM.
Regarding `NCC(=O)Nc1ccc(-n2cc(C(F)(F)F)nc2-c2ccc(-c3ccccc3)cc2)cc1` [Compound 50], the CC50 with THP-1 macrophages (setting [11]) is 42.7 µM; in the series with THP-1 macrophages (setting [12]), 23.5 µM. The IC50 stood at 9.1 µM in series [3] (setting [13]) and 1.5 µM in series [6] (setting [14]). Besides, the MIC50 in series [4] (setting [15]) is reported as 14.6 µM (≈ 6.37 µg/mL).
In the case of `N#Cc1cccc(CN2CCC(Nc3ccc(-n4nc(C(F)(F)F)cc4-c4ccc(-c5ccc(C(F)(F)F)cc5)cc4)cc3)C2)c1` (stereo not drawn) [Compound 53], in series [1], the CC50 at 24 h was above 50 µM. In series [1], this compound had a CC50 at 72 h above 300 µM. For the same compound, in the series with THP-1 macrophages, the CC50 was above 300 µM. In addition, in the series on THP-1 macrophages (72hr incubation up to 300μM), the “reduction in macrophage viability” value was “Neither compound had any reduction”. Further, the IC50 is 1.1 µM in series [3] (setting [7]), below 2 µM in series [3] (setting [8]) and 0.4 µM in series [6] (setting [16]). Moreover, in series [6], the “Selectivity 24h LC50 / Lum IC50” value is reported as above 112.6. Further, the MIC50 in series [4] (setting [9]), in series [4] (setting [10]) and in series [5] was above 200 µM throughout. Moreover, in series [4] (resazurin assay, strain not named for 53, L. donovani for 197), the “direct effect on extracellular promastigote viability” value is “no direct effects”.
Consider `O=C(Nc1ccc(-n2cc(C(F)(F)F)nc2-c2ccc(-c3ccccc3)cc2)cc1)C1CCN(Cc2ccccc2)C1` (stereo not drawn) [Compound 86], for which the CC50 in the series on THP-1 macrophages (setting [11]) is 8.2 µM; in the series on THP-1 macrophages (setting [12]), 21.9 µM. Besides, the IC50 in series [3] (setting [13]) stood at 0.6 µM; in series [6] (setting [14]) it was 1.4 µM. In addition, the MIC50 in series [4] (setting [15]) turned out to be 3.2 µM (≈ 1.81 µg/mL).
The matching figures for `Oc1ccccc1CN1CCC(Nc2ccc(-n3nc(C(F)(F)F)cc3-c3ccc(-c4ccc(C(F)(F)F)cc4)cc3)cc2)C1` (stereo not drawn) [Compound 91]: 53.4 µM, above 50 µM, 2.4 µM, 1.4 µM and 56.3 µM (≈ 35.1 µg/mL).
As to `N[C@@H]1CCN(c2ccc(-n3nc(C(F)(F)F)cc3-c3ccc(-c4ccc(C(F)(F)F)cc4)cc3)cc2)C1` [Compound 129], the CC50 was 6.2 µM with THP-1 macrophages (setting [11]) and 6.3 µM in the series with THP-1 macrophages (setting [12]). Further, the 50% inhibitory concentration (IC50) in series [3] (setting [13]) is 0.4 µM; in series [6] (setting [14]), 0.1 µM. Moreover, in series [4] (setting [15]), the MIC50 worked out at 1.7 µM (≈ 0.878 µg/mL).
The matching figures for `N[C@H]1CCN(c2ccc(-n3nc(C(F)(F)F)cc3-c3ccc(-c4ccc(C(F)(F)F)cc4)cc3)cc2)C1` [Compound 130]: 6.4 µM, 4.2 µM, 1.6 µM, 0.2 µM and 2.1 µM (≈ 1.08 µg/mL).
The matching figures for `CC(C)(C)OC(=O)NC1CCN(c2ccc(-n3nncc3-c3ccc(C(F)(F)F)cc3)cc2)C1` (stereo not drawn) [Compound 133]: 33.9 µM, 29 µM, 1.7 µM, 0.9 µM and 13.0 µM (≈ 6.16 µg/mL).
The matching figures for `Oc1ccc(CNC2CCN(c3ccc(-n4nc(C(F)(F)F)cc4C4CCCCC4)cc3)CC2)cc1` [Compound 319]: 7.2 µM, 6.4 µM, 3.4 µM, 0.8 µM and 0.8 µM (≈ 0.399 µg/mL).
Take `N#Cc1ccc(CNCC(=O)Nc2ccc(-n3nc(C(F)(F)F)cc3C3CCCCC3)cc2)cc1` [Compound 354]: the CC50 at 24 h in series [1] was 22 µM. For the same compound, the CC50 at 72 h in series [1] worked out at 20.2 µM. The IC50 in series [2] amounted to 3.5 µM; in series [3] (setting [7]) it was 0.4 µM; in series [3] (setting [8]), 0.4 µM; in series [6] (setting [16]), 0.5 µM. In addition, the “Selectivity 24h LC50 / Lum IC50” value in series [6] was determined as 44.9. The MIC50 in series [4] (setting [9]) is 22.1 µM (≈ 10.6 µg/mL); in series [4] (setting [10]) it was 22.1 µM (≈ 10.6 µg/mL); in series [5], 30.7 µM (≈ 14.8 µg/mL).
Turning to `FC(F)(F)c1ccc(-c2nc(C(F)(F)F)cn2-c2ccc(NC3CCNCC3)cc2)cc1` [Compound 408], the CC50 was determined as 25.1 µM in the series with THP-1 macrophages (setting [11]) and 25.4 µM with THP-1 macrophages (setting [12]). In addition, the figures for the IC50 in series [3] (setting [13]) and in series [6] (setting [14]) were 2.6 µM and 1.5 µM, respectively. Moreover, in series [4] (setting [15]), the MIC50 is reported as 0.9 µM (≈ 0.409 µg/mL).
With `CC(=O)NCCCN1CCC(Oc2ccc(-n3nc(C(F)(F)F)cc3C3CCCCC3)cc2)CC1` [Compound 428], in the series on THP-1 macrophages (setting [17]), the CC50 was found to be 11.4 µM. Further, in series [6] (setting [18]), the IC50 amounted to 8.9 µM.
The matching figures for `NCCCOc1ccc(CN2CCC(Oc3ccc(-n4nc(C(F)(F)F)cc4C4CCCCC4)cc3)CC2)cc1` [Compound 429]: 12.1 µM and 2.4 µM.
As for `CC(=O)NCCCCCN1CCC(Oc2ccc(-n3nc(C(F)(F)F)cc3C3CCCCC3)cc2)CC1` [Compound 431], the CC50 with THP-1 macrophages (setting [17]) was 22.4 µM. In addition, in series [6] (setting [18]), the IC50 was found to be 4.8 µM.
With `NCCCCCOc1ccc(CN2CCC(Oc3ccc(-n4nc(C(F)(F)F)cc4C4CCCCC4)cc3)CC2)cc1` [Compound 432], the CC50 in the series with THP-1 macrophages (setting [17]) amounted to 5.6 µM. For the same compound, in series [6] (setting [18]), the IC50 came to 2.9 µM.
